# Assay: heating test: absorbance at 454 nm of ammonium adipate solutions after heating the adipic acid batches
# Format: physicochemical
# Conditions: 50 g heated to 215° C. for 205 min, then placed in 415 ml aqueous 5% ammonia solution, reference adipic acid (A) = 1
# Protocol: The adipic acid batches (A) and (B) are subjected to a heating test. This test consists in heating 50 g of each batch to 215° C. for 205 min and then placing each of them in 415 ml of aqueous 5% ammonia solution. The absorbence at 454 nm of the ammonium adipate solutions obtained is then measured.
# The results below are obtained, expressed as relative absorbences, the reference adipic acid (A) representing the value 1:
# This test consists in heating 50 g of each batch to 215° C. for 205 min and then placing each of them in 415 ml of aqueous 5% ammonia solution.
# The absorbance at 454 nm of the ammonium adipate solutions obtained is then measured.
# The following results are obtained, expressed as relative absorbances, the reference adipic acid (A) representing the value 1: […]
compound,measurement,setting,value
"O=C(O)CCCCC(=O)O [adipic acid (A), adipic acid, reference compound]",Relative absorbance at 454 nm,,1
same,relative absorbence at 454 nm,,1
"O=C(O)CCCCC(=O)O [adipic acid (B), adipic acid]",relative absorbence at 454 nm,,0.25
"O=C(O)CCCCC(=O)O [adipic acid (C), adipic acid]",Relative absorbance at 454 nm,listed as C,0.3
"O=C(O)CCCCC(=O)O [adipic acid (D), adipic acid]",Relative absorbance at 454 nm,listed as D,0.2
"O=C(O)CCCCC(=O)O [adipic acid (E), adipic acid]",Relative absorbance at 454 nm,listed as E,0.5

# Reference: US6559339B1, “Method for crystallizing carboxylic acid” (Rhodia Fiber & Resin Intermediates, priority 1998, dated 2003)
